Measurements: patent US20110178104A1, “Anti-Heparin Compounds” (POLYMEDIX INC., priority 2010, published 2011)
Values after ≈ are worked out from the molar mass of the structure shown. Values joined by “and” are separate entries in the source; they are usually repeats but may differ in a detail not shown here. Equal entries are not always repeated. Where two headings read alike, the source gives them in different places.

What was measured:
[1] = tested on: enoxaparin; test: FXa amidolytic assay (Example 10), enoxaparin; conditions: read-out: Enox FXa EC50
Protocol: (§1) Two μl of test agent are added (range between 0.01 and 23 ug/ml) and incubated for 5 minutes at 23° C. Bovine Factor Xa was added to a final concentration of 0.636 nkat/mL and incubated for a further 10 minutes at 23° C.

[2] = tested on: tinzaparin; test: FXa amidolytic assay (Example 10), tinzaparin; conditions: read-out: Tinzap FXa EC50
Protocol: as §1

[3] = tested on: UFH; test: FXa amidolytic assay (Example 10), UFH; conditions: read-out: Heparin FXa uM EC50
Protocol: as §1

[4] = tested on: fondaparinux; test: FXa amidolytic assay (Example 10), fondaparinux; conditions: read-out: Fondap FXa EC50
Protocol: as §1

[5] = tested on: Unfractionated heparin; test: aPTT clotting assay, UFH 0.4 U/mL in plasma (Example 10); assay type: biochemical
Protocol: aPTT clotting Assay: Unfractionated heparin was mixed with plasma at a final concentration of 0.4 U/mL (or concentration which increases aPTT time to between 120 and 300 seconds). […] The ACL Elite Hemostasis analyzer (Beckman Coulter™) was used to add aPTT reagent (HemosIL SynthASil) to supplemented plasma. Clotting was initiated by addition of CaCl2 and time to clot was recorded.

[6] = tested on: isolated human erythrocytes; test: cells; assay type: cell-based; conditions: human RBC, 1 hour at 37° C.; for EC50: Homo sapiens, Erythrocyte, 1 h, read-out: Hemolysis EC50
Protocol: Hemolysis assay: Cytotoxicity was also evaluated in a hemolysis assay using isolated human erythrocytes. Pooled whole human blood was centrifuged to separate the red blood cells (RBC). The isolated RBCs were rinsed and diluted in Tris-buffered saline (TBS buffer, pH 7.4) to obtain a 0.22% RBC stock suspension. Serial two-fold dilutions of test agent were assayed over a concentration range of 1000 to 0.48 μg/ml with shaking for 1 hour at 37° C. At the conclusion of the incubation time, samples were centrifuged and 30 μl of the supernatant was added to 100 μl H2O. OD405 measurements were read for hemoglobin concentration. The bee venom peptide melittin was used as a positive control. EC50 values were determined using a four parameter logistic equation: Y=Bottom+(Top-Bottom)/(1+10̂((LogEC50-X)*HillSlope)).

[7] = enoxaparin 0.1 ug/ml, human antithrombin, bovine Factor Xa
[8] = tinzaparin 0.1 ug/ml, human antithrombin, bovine Factor Xa
[9] = UFH 0.03 units/mL, human antithrombin, bovine Factor Xa
[10] = fondaparinux 0.02 μg/mL, human antithrombin, bovine Factor Xa
[11] = unfractionated heparin 0.4 U/mL in plasma, aPTT clotting

| Structure (SMILES) | EC50 [1, 7] | EC50 [2, 8] | EC50 [3, 9] [µM] | EC50 [4, 10] | EC50 [5, 11] [nM] | EC50 [6] [µg/mL] | EC50 [1] [nM] | EC50 [2] [nM] | EC50 [3] [µM] | EC50 [4] [nM] | EC50 [5] [nM] | Hemolysis EC50 [6] |
| --- | --- | --- | --- | --- | --- | --- | --- | --- | --- | --- | --- | --- |
| COc1ccc(NC(=O)[C@@H](CCCNC(N)=O)NC(=O)c2cc(NC(=O)[C@@H](CCCNC(N)=O)NC(=O)c3cc(NC(=O)[C@@H](CCCNC(=N)N)NC(=O)c4cc(NC(=O)[C@H](N)CCCNC(N)=O)ccc4OC)ccc3OC)ccc2OC)cc1C(N)=O [Compound 372] | 225 nM | 150 nM | > 10 | 544 nM | 2970 |  |  |  |  |  |  |  |
| COc1cc(OC)c(C(=O)NCCNC(=O)c2cc(C(=O)NCCN)c(OC)cc2OC)cc1C(=O)O [Compound 387] | > 5000 nM | > 5000 nM | > 20 | > 10000 nM | > 10000 |  |  |  |  |  |  |  |
| COc1ccc(C(=O)N[C@@H](CCCCN)C(=O)Nc2ccc(OC)c(C(=O)N[C@@H](CCCCN)C(=O)Nc3ccc(OC)c(C(=O)N[C@@H](CCCCN)C(=O)Nc4ccc(OC)c(C(N)=O)c4)c3)c2)cc1NC(=O)[C@@H](N)CCCCN [Compound 237] | 177 nM and 341 nM | 109 nM and 121 nM | 0.199 | 3620 nM and 3730 nM | 1140 |  |  |  |  |  |  |  |
| COc1ccc(NC(=O)[C@@H](CCCNC(=N)N)NC(=O)c2cc(NC(=O)[C@@H](CCCNC(=N)N)NC(=O)c3cc(NC(=O)[C@@H](CCCNC(N)=O)NC(=O)c4cc(NC(=O)[C@H](N)CCCNC(=N)N)ccc4OC)ccc3OC)ccc2OC)cc1C(N)=O [Compound 219] | 95 nM | 187 nM | 0.153 | 731 nM | 1170 |  |  |  |  |  |  |  |
| COc1cc(OC)c(C(=O)N[C@H]2CC[C@@H](NC(=O)c3cc(C(=O)N[C@H]4CC[C@@H](N=C(N(C)C)N(C)C)CC4)c(OC)cc3OC)CC2)cc1C(N)=O [Compound 388] | > 5000 nM | > 5000 nM | > 20 | > 10000 nM | > 10000 |  |  |  |  |  |  |  |
| COc1ccc(NC(=O)[C@@H](CCCNC(=N)N)NC(=O)c2cc(NC(=O)[C@@H](CCCNC(=N)N)NC(=O)c3cc(NC(=O)[C@@H](CCCNC(=N)N)NC(=O)c4cc(NC(=O)[C@H](N)CCCNC(=N)N)ccc4OC)ccc3OCC(=O)O)ccc2OC)cc1C(=O)N[C@H](Cc1c[nH]c2ccccc12)C(N)=O [Compound 307] | 120 nM | 118 nM |  | 118 nM | 3780 | ~50 (≈ 34 µM) |  |  |  |  |  |  |
| COc1cc(OC)c(C(=O)N[C@H]2CC[C@H](NC(=O)c3cc(C(=O)N[C@H]4CC[C@H](N=C(N(C)C)N(C)C)CC4)c(OC)cc3OC)CC2)cc1C(N)=O [Compound 389] | 5610 nM | 6730 nM | > 10 | > 10000 nM | > 10000 |  |  |  |  |  |  |  |
| COc1ccc(NC(=O)[C@@H](CCCNC(=N)N)NC(=O)c2cc(NC(=O)[C@@H](CCCNC(N)=O)NC(=O)c3cc(NC(=O)[C@@H](CCCNC(N)=O)NC(=O)c4cc(NC(=O)[C@H](N)CCCNC(N)=O)ccc4OC)ccc3OC)ccc2OC)cc1C(N)=O [Compound 370] | 463 nM | 259 nM | 12.5 | > 10000 nM | 1460 |  |  |  |  |  |  |  |
| COc1ccc(NC(=O)[C@@H](CCCNC(=N)N)NC(=O)c2cc(NC(=O)[C@@H](CCCNC(N)=O)NC(=O)c3cc(NC(=O)[C@@H](CCCNC(=N)N)NC(=O)c4cc(NC(=O)[C@H](N)CCCNC(N)=O)ccc4OC)ccc3OC)ccc2OC)cc1C(N)=O [Compound 378] |  |  |  |  |  |  | 110 | 73 | 0.49 | 2330 | 2010 |  |
| COc1ccc(NC(=O)[C@H](CCCCN)NC(=O)c2cc(NC(=O)[C@H](CCCCN)NC(=O)c3cc(NC(=O)[C@H](CCC(=O)O)NC(=O)c4cc(NC(=O)[C@@H](N)CCCCN)ccc4OC)ccc3OC)ccc2OC)cc1C(N)=O [Compound 317] | 293 nM | 178 nM |  | 873 nM | 1610 | > 1000 |  |  |  |  |  |  |
| COc1cc(OC)c(C(=O)NC2CCN(C(=O)c3cc(C(=O)NCCN)c(OC)cc3OC)CC2)cc1C(=O)O [Compound 385] | > 5000 nM | > 5000 nM | > 20 | > 10000 nM | > 10000 |  |  |  |  |  |  |  |
| COc1ccc(NC(=O)[C@@H](CCCNC(=N)N)NC(=O)c2cc(NC(=O)[C@@H](CCCNC(=N)N)NC(=O)c3cc(NC(=O)[C@@H](CCC(=O)O)NC(=O)c4cc(NC(=O)[C@H](N)CCCNC(=N)N)ccc4OC)ccc3OC)ccc2OC)cc1C(N)=O [Compound 321] | 441 nM | 225 nM |  | 2690 nM | 1820 | > 1000 |  |  |  |  |  |  |
| COc1ccc(NC(=O)[C@@H](CCCNC(=N)N)NC(=O)c2cc(NC(=O)[C@@H](CCCNC(=N)N)NC(=O)c3cc(NC(=O)[C@@H](CCCNC(=N)N)NC(=O)c4cc(NC(C)=O)ccc4OC)ccc3OCC(=O)O)ccc2OC)cc1C(=O)N[C@H](Cc1c[nH]c2ccccc12)C(N)=O [Compound 308] | 157 nM | 136 nM |  | 192 nM | > 10000 | ~500 (≈ 369 µM) |  |  |  |  |  |  |
| COc1ccc(NC(=O)[C@@H](CCCNC(=N)N)NC(=O)c2cc(NC(=O)[C@@H](CCCNC(N)=O)NC(=O)c3cc(NC(=O)[C@@H](CCCNC(N)=O)NC(=O)c4cc(NC(=O)[C@H](N)CCCNC(=N)N)ccc4OC)ccc3OC)ccc2OC)cc1C(N)=O [Compound 376] | 191 nM | 114 nM | 0.416 | 1670 nM | 1890 |  |  |  |  |  |  |  |
| COc1ccc(NC(=O)[C@H](CCCCN)NC(=O)c2cc(NC(=O)[C@H](CCCCN)NC(=O)c3cc(NC(=O)[C@H](CCCCN)NC(=O)c4cc(NC(=O)[C@@H](N)CCCCN)ccc4OC)ccc3OC)ccc2OC)cc1C(=O)N[C@@H](Cc1ccc(O)cc1)C(=O)O [Compound 265] | 138 nM | 120 nM |  | 385 nM | 1450 |  |  |  |  |  |  | no significant decrease |
| COc1cc(OC)c(C(=O)NCCNC(=O)c2cc(C(=O)NCCNC(=O)c3cc(C(=O)NCCN)c(OC)cc3OC)c(OC)cc2OC)cc1C(=O)NCCN [Compound 386] | > 5000 nM | 7240 nM | 19.4 | > 10000 nM |  |  |  |  |  |  |  |  |
| COc1ccc(NC(=O)[C@@H](CCCNC(N)=O)NC(=O)c2cc(NC(=O)[C@@H](CCCNC(N)=O)NC(=O)c3cc(NC(=O)[C@@H](CCCNC(N)=O)NC(=O)c4cc(NC(=O)[C@H](N)CCCNC(=N)N)ccc4OC)ccc3OC)ccc2OC)cc1C(N)=O [Compound 373] | 123 nM | 123 nM | > 10 | > 10000 nM | 2360 |  |  |  |  |  |  |  |
| CNCNC(=O)c1cccc(C(=O)N[C@H]2CC[C@H](NC(=O)c3cc(C(=O)N[C@H]4CC[C@H](NC(=O)c5cccc(C(=O)NCCN)c5)CC4)c(OC)cc3OC)CC2)c1 [Compound 366] | > 5000 nM | > 5000 nM | 15.5 | > 10000 nM | > 10000 |  |  |  |  |  |  |  |
| COc1ccc(NC(=O)[C@H](CCCCCN)NC(=O)c2cc(NC(=O)[C@H](CCCCCN)NC(=O)c3cc(NC(=O)[C@H](CCCCCN)NC(=O)c4cc(NC(=O)[C@@H](N)CCCCCN)ccc4OC)ccc3OC)ccc2OC)cc1C(N)=O [Compound 236] | 99 nM | 396 nM | 0.364 | > 12600 nM | 1930 |  |  |  |  |  |  |  |
| COc1ccc(NC(=O)[C@H](CCCNC(=N)N)NC(=O)c2cc(NC(=O)[C@H](CCCNC(=N)N)NC(=O)c3cc(NC(=O)[C@H](CCCNC(=N)N)NC(=O)c4cc(NC(=O)[C@@H](N)CCCNC(=N)N)ccc4OC)ccc3OCC(=O)O)ccc2OC)cc1C(N)=O [Compound 288] | 119 nM | 102 nM |  | 390 nM | 2020 |  |  |  |  |  |  | no significant decrease |
| COc1ccc(NC(=O)[C@@H](CCCNC(N)=O)NC(=O)c2cc(NC(=O)[C@@H](CCCNC(N)=O)NC(=O)c3cc(NC(=O)[C@@H](CCCNC(=N)N)NC(=O)c4cc(NC(=O)[C@H](N)CCCNC(=N)N)ccc4OC)ccc3OC)ccc2OC)cc1C(N)=O [Compound 375] | 113 nM | 76 nM | 0.681 | 1260 nM | 2690 |  |  |  |  |  |  |  |
| COc1ccc(NC(=O)[C@H](CCCNC(=N)N)NC(=O)c2cc(NC(=O)[C@H](CCCNC(=N)N)NC(=O)c3cc(NC(=O)[C@H](CCC(=O)O)NC(=O)c4cc(NC(=O)[C@@H](N)CCCNC(=N)N)ccc4OC)ccc3OC)ccc2OC)cc1C(N)=O [Compound 325] | 505 nM | 213 nM |  | 2230 nM | 2700 | > 1000 |  |  |  |  |  |  |
| COc1ccc(NC(=O)[C@H](CCCNC(=N)N)NC(=O)c2cc(NC(=O)[C@H](CCCNC(=N)N)NC(=O)c3cc(NC(=O)[C@H](CCCNC(=N)N)NC(=O)c4cc(NC(C)=O)ccc4OC)ccc3OC)ccc2OC)cc1C(N)=O [Compound 298] | 201 nM | 167 nM |  | 334 nM | 2060 |  |  |  |  |  |  | no significant decrease |
